# From patent US6737383B1, “Herbicidal oxadiazolidines” (priority 1999, dated 2004)
# Columns and labels:
# [1] = system: arrowleaf sida; assay: Test C postemergence arrowleaf sida; assay type: in vivo, Sida rhombifolia; settings: 0 to 100 scale, 0 no effect, 100 complete control
# Method in brief: (§1)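 Foliar postemergence treatment of greenhouse plants grown in 60:40 sandy loam:potting mix; compounds delivered in non-phytotoxic solvent with surfactant. Evaluation is visual, 0–100, after ~14–21 d.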
# [2] = system: velvetleaf; assay: Test C postemergence velvetleaf; assay type: in vivo, Abutilon theophrasti; settings: 0 to 100 scale, 0 no effect, 100 complete control
# Method in brief: as §1
# [3] = system: Green foxtail; assay: Test D green foxtail; assay type: in vivo; settings: Preemergence, 0 to 100 scale
# Method in brief: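 Greenhouse pots, sandy loam, single species per pot. Preemergence tests: soil-surface application ≤1 day after planting. Compound formulated in non-phytotoxic solvent with surfactant. Visual rating 14–21 DAT, scale 0–100.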
# [4] = system: purple nutsedge; assay: Test C postemergence purple nutsedge; assay type: in vivo, Cyperus rotundus; settings: 0 to 100 scale, 0 no effect, 100 complete control
# Method in brief: as §1
# [5] = system: hairy beggarticks; assay: Test C postemergence hairy beggarticks; assay type: in vivo, Bidens pilosa; settings: 0 to 100 scale, 0 no effect, 100 complete control
# Method in brief: as §1
# [6] = system: lambsquarters; assay: Test C postemergence lambsquarters; assay type: in vivo, Chenopodium album; settings: 0 to 100 scale, 0 no effect, 100 complete control
# Method in brief: as §1
# [7] = system: ladysthumb smartweed; assay: Test C postemergence ladysthumb smartweed; assay type: in vivo, Polygonum persicaria; settings: 0 to 100 scale, 0 no effect, 100 complete control
# Experimental: Compounds evaluated in this test were formulated in a non-phytotoxic solvent mixture which included a surfactant and applied to plants that were grown for various periods of time before treatment (postemergence application). A mixture of sandy loam soil and greenhouse potting mix in a 60:40 ratio was used for the postemergence test.
# Plantings of these crops and weed species were adjusted to produce plants of appropriate size for the postemergence test. All plant species were grown using normal greenhouse practices. Crop and weed species include arrowleaf sida (Sida rhombifolia), barnyardgrass (Echinochloa crus-galli), cocklebur (Xanthium strumarium), common ragweed (Ambrosia elatior), corn (Zea mays), cotton (Gossypium hirsutum), eastern black nightshade (Solanum ptycanthum), fall panicum (Panicum dichotomiflorum), field bindweed (Convolvulus arvensis), giant foxtail (Setaria faberii), hairy beggarticks (Bidens pilosa), ivyleaf morningglory (Ipomoea hederacea), johnsongrass (Sorghum halepense), ladysthumb smartweed (Polygonum persicaria), lambsquarters (Chenopodium album), large crabgrass (Digitaria sanguinalis), purple nutsedge (Cyperus rotundus), redroot pigweed (Amaranthus retroflexus), soybean (Glycine max), surinam grass (Brachiaria decumbens), velvetleaf (Abutilon theophrasti) and wild poinsettia (Euphorbia heterophylla).
# Treated plants and untreated controls were maintained in a greenhouse for approximately 14, to 21 days, after which all treated plants were compared to untreated controls and visually evaluated. Plant response ratings, summarized in Table C, were based upon a 0 to 100 scale where 0 was no effect and 100 was complete control. A dash response (−) means no test result.
# [8] = system: fall panicum; assay: Test C postemergence fall panicum; assay type: in vivo, Panicum dichotomiflorum; settings: 0 to 100 scale, 0 no effect, 100 complete control
# Method in brief: as §1
# [9] = system: johnsongrass; assay: Test C postemergence johnsongrass; assay type: in vivo, Sorghum halepense; settings: 0 to 100 scale, 0 no effect, 100 complete control
# Method in brief: as §1
# [10] = system: cocklebur; assay: Test C postemergence cocklebur; assay type: in vivo, Xanthium strumarium; settings: 0 to 100 scale, 0 no effect, 100 complete control
# Method in brief: as §1
# [11] = system: ivyleaf morningglory; assay: Test C postemergence ivyleaf morningglory; assay type: in vivo, Ipomoea hederacea; settings: 0 to 100 scale, 0 no effect, 100 complete control
# Method in brief: as §1
# [12] = system: giant foxtail; assay: Test C postemergence giant foxtail; assay type: in vivo, Setaria faberii; settings: 0 to 100 scale, 0 no effect, 100 complete control
# Method in brief: as §1
# [13] = system: surinam grass; assay: Test C postemergence surinam grass; assay type: in vivo, Brachiaria decumbens; settings: 0 to 100 scale, 0 no effect, 100 complete control
# Method in brief: as §1
# [14] = system: common ragweed; assay: Test C postemergence common ragweed; assay type: in vivo, Ambrosia elatior; settings: 0 to 100 scale, 0 no effect, 100 complete control
# Method in brief: as §1
# [15] = system: corn; assay: Test C postemergence corn; assay type: in vivo, Zea mays; settings: 0 to 100 scale, 0 no effect, 100 complete control
# Method in brief: as §1
smiles,measurement,setting,value
CC(C)N(C(=O)n1oc(=O)n(Cc2ccccc2)c1=O)c1ccccc1 [Compound 94],Plant response rating Arrowleaf sida,[1]; Rate 280 g/ha,10
same,Plant response rating Arrowleaf sida,[1]; Rate 560 g/ha,80
same,Plant response rating Arrowleaf sida,[1]; Rate 1120 g/ha,80
same,"Plant response rating, Velvetleaf",[2]; Rate 140 g/ha,5
same,"Plant response rating, Velvetleaf",[2]; Rate 280 g/ha,5
same,"Plant response rating, Velvetleaf",[2]; Rate 560 g/ha,20
same,"Plant response rating, Velvetleaf",[2]; Rate 1120 g/ha,40
same,"Plant response rating, Green foxtail",[3]; Rate 500 g/ha,100
same,"Plant response rating, Purple nutsedge",[4]; Rate 140 g/ha,0
same,"Plant response rating, Purple nutsedge",[4]; Rate 280 g/ha,0
same,"Plant response rating, Purple nutsedge",[4]; Rate 560 g/ha,0
same,"Plant response rating, Purple nutsedge",[4]; Rate 1120 g/ha,0
same,Plant response rating H. beggarticks,[5]; Rate 140 g/ha,0
same,Plant response rating H. beggarticks,[5]; Rate 280 g/ha,0
same,Plant response rating H. beggarticks,[5]; Rate 560 g/ha,5
same,Plant response rating H. beggarticks,[5]; Rate 1120 g/ha,20
same,Plant response rating Lambsquarters,[6]; Rate 140 g/ha,0
same,Plant response rating Lambsquarters,[6]; Rate 280 g/ha,5
same,Plant response rating Lambsquarters,[6]; Rate 560 g/ha,10
same,Plant response rating Lambsquarters,[6]; Rate 1120 g/ha,30
same,Plant response rating Ladysthumb,[7]; Rate 140 g/ha,5
same,Plant response rating Ladysthumb,[7]; Rate 280 g/ha,10
same,Plant response rating Ladysthumb,[7]; Rate 560 g/ha,85
same,Plant response rating Ladysthumb,[7]; Rate 1120 g/ha,90
same,Plant response rating Fall panicum,[8]; Rate 140 g/ha,0
same,Plant response rating Fall panicum,[8]; Rate 280 g/ha,0
same,Plant response rating Fall panicum,[8]; Rate 560 g/ha,10
same,Plant response rating Fall panicum,[8]; Rate 1120 g/ha,70
same,Plant response rating Johnsongrass,[9]; Rate 140 g/ha,0
same,Plant response rating Johnsongrass,[9]; Rate 280 g/ha,0
same,Plant response rating Johnsongrass,[9]; Rate 560 g/ha,0
same,Plant response rating Johnsongrass,[9]; Rate 1120 g/ha,0
same,"Plant response rating, Cocklebur",[10]; Rate 140 g/ha,0
same,"Plant response rating, Cocklebur",[10]; Rate 280 g/ha,0
same,Plant response rating I. morningglory,[11]; Rate 140 g/ha,0
same,Plant response rating I. morningglory,[11]; Rate 280 g/ha,10
same,Plant response rating I. morningglory,[11]; Rate 560 g/ha,90
same,"Plant response rating, Giant foxtail",[12]; Rate 140 g/ha,0
same,"Plant response rating, Giant foxtail",[12]; Rate 280 g/ha,0
same,"Plant response rating, Giant foxtail",[12]; Rate 560 g/ha,10
same,"Plant response rating, Giant foxtail",[12]; Rate 1120 g/ha,40
same,Plant response rating Surinam grass,[13]; Rate 140 g/ha,0
same,Plant response rating Surinam grass,[13]; Rate 280 g/ha,0
same,Plant response rating Surinam grass,[13]; Rate 560 g/ha,0
same,Plant response rating Surinam grass,[13]; Rate 1120 g/ha,10
same,Plant response rating Common ragweed,[14]; Rate 140 g/ha,0
same,Plant response rating Common ragweed,[14]; Rate 280 g/ha,0
same,Plant response rating Common ragweed,[14]; Rate 560 g/ha,5
same,Plant response rating Common ragweed,[14]; Rate 1120 g/ha,5
same,"Plant response rating, Corn",[15]; Rate 140 g/ha,0
same,"Plant response rating, Corn",[15]; Rate 280 g/ha,0
same,"Plant response rating, Corn",[15]; Rate 560 g/ha,0
same,"Plant response rating, Corn",[15]; Rate 1120 g/ha,0
C=CCn1c(=O)on(C(=O)N(c2ccc(F)cc2)C(C)C)c1=O [Compound 146],Plant response rating Arrowleaf sida,[1]; Rate 140 g/ha,40
same,Plant response rating Arrowleaf sida,[1]; Rate 280 g/ha,45
same,Plant response rating Arrowleaf sida,[1]; Rate 560 g/ha,85
same,Plant response rating Arrowleaf sida,[1]; Rate 1120 g/ha,90
same,"Plant response rating, Velvetleaf",[2]; Rate 140 g/ha,0
same,"Plant response rating, Velvetleaf",[2]; Rate 280 g/ha,40
same,"Plant response rating, Velvetleaf",[2]; Rate 560 g/ha,40
same,"Plant response rating, Velvetleaf",[2]; Rate 1120 g/ha,60
same,"Plant response rating, Green foxtail",[3]; Rate 250 g/ha,100
same,"Plant response rating, Green foxtail",[3]; Rate 500 g/ha,100
same,"Plant response rating, Purple nutsedge",[4]; Rate 140 g/ha,0
same,"Plant response rating, Purple nutsedge",[4]; Rate 280 g/ha,0
same,"Plant response rating, Purple nutsedge",[4]; Rate 560 g/ha,0
same,"Plant response rating, Purple nutsedge",[4]; Rate 1120 g/ha,0
same,Plant response rating H. beggarticks,[5]; Rate 140 g/ha,10
same,Plant response rating H. beggarticks,[5]; Rate 280 g/ha,20
same,Plant response rating H. beggarticks,[5]; Rate 560 g/ha,85
same,Plant response rating H. beggarticks,[5]; Rate 1120 g/ha,85
same,Plant response rating Lambsquarters,[6]; Rate 140 g/ha,0
same,Plant response rating Lambsquarters,[6]; Rate 280 g/ha,5
same,Plant response rating Lambsquarters,[6]; Rate 560 g/ha,10
same,Plant response rating Lambsquarters,[6]; Rate 1120 g/ha,50
same,Plant response rating Ladysthumb,[7]; Rate 140 g/ha,0
same,Plant response rating Ladysthumb,[7]; Rate 280 g/ha,10
same,Plant response rating Ladysthumb,[7]; Rate 560 g/ha,85
same,Plant response rating Fall panicum,[8]; Rate 140 g/ha,50
same,Plant response rating Fall panicum,[8]; Rate 280 g/ha,60
same,Plant response rating Fall panicum,[8]; Rate 560 g/ha,90
same,Plant response rating Fall panicum,[8]; Rate 1120 g/ha,90
same,Plant response rating Johnsongrass,[9]; Rate 140 g/ha,0
same,Plant response rating Johnsongrass,[9]; Rate 280 g/ha,30
same,Plant response rating Johnsongrass,[9]; Rate 560 g/ha,60
same,Plant response rating Johnsongrass,[9]; Rate 1120 g/ha,90
same,"Plant response rating, Cocklebur",[10]; Rate 140 g/ha,40
same,"Plant response rating, Cocklebur",[10]; Rate 280 g/ha,40
same,"Plant response rating, Cocklebur",[10]; Rate 560 g/ha,70
same,"Plant response rating, Cocklebur",[10]; Rate 1120 g/ha,70
same,Plant response rating I. morningglory,[11]; Rate 140 g/ha,0
same,Plant response rating I. morningglory,[11]; Rate 280 g/ha,20
same,Plant response rating I. morningglory,[11]; Rate 560 g/ha,20
same,Plant response rating I. morningglory,[11]; Rate 1120 g/ha,50
same,"Plant response rating, Giant foxtail",[12]; Rate 140 g/ha,0
same,"Plant response rating, Giant foxtail",[12]; Rate 280 g/ha,40
same,"Plant response rating, Giant foxtail",[12]; Rate 560 g/ha,80
same,"Plant response rating, Giant foxtail",[12]; Rate 1120 g/ha,85
same,Plant response rating Surinam grass,[13]; Rate 140 g/ha,0
same,Plant response rating Surinam grass,[13]; Rate 280 g/ha,5
same,Plant response rating Surinam grass,[13]; Rate 560 g/ha,50
same,Plant response rating Surinam grass,[13]; Rate 1120 g/ha,95
same,Plant response rating Common ragweed,[14]; Rate 140 g/ha,10
same,Plant response rating Common ragweed,[14]; Rate 560 g/ha,30
same,Plant response rating Common ragweed,[14]; Rate 1120 g/ha,30
same,"Plant response rating, Corn",[15]; Rate 140 g/ha,0
same,"Plant response rating, Corn",[15]; Rate 280 g/ha,0
same,"Plant response rating, Corn",[15]; Rate 560 g/ha,5
same,"Plant response rating, Corn",[15]; Rate 1120 g/ha,50
